Like-named read-outs stand apart in the source and are kept apart here.
Tests used:
HL-60 cells = experiment: Apoptosis and cell cycle (annexin V, DNA fragmentation, flow cytometry), HL-60; assay type: cell-based, human; conditions: HL-60, 0.5 nM
Description: FIGS. 1A-1B. Induction of apoptosis by Orsaponin (OSW-1) in human leukemia cells. HL-60 cells in exponentially growing phase were treated with 0.5 nM OSW-1 for the indicated times. Drug induced apoptosis was analyzed by the annexin V assay as shown in FIG. 1A and by the DNA fragmentation assay as shown in FIG. 1B. In FIG. 1A, the early and late stages of apoptotic cells appear in the low-right window and upper-right window, respectively.
(§1) FIG. 9. Mitochondrial respiration plays an important role in the cytotoxic action of Orsaponin (OSW-1). The parental HL-60 line and its mutant with mitochondrial respiration defect, clone C6F, were incubated with 0.5 nM OSW-1 for the indicated times. Apoptosis and change in cell cycle distribution were assayed by flow cytometry analysis.
2. Analysis of Apoptosis. Two methods were used to analyze apoptosis by assaying different events in the apoptotic pathways. Percentages of apoptotic cells induced by orsaponins of the invention were evaluated using flow cytometer. Different methods of staining cells for apoptosis were utilized to assess different aspects of apoptotic cascade.
(i) Annexin V Staining. Annexin V binds to cells that express phosphatidylserine on the outer layer of the cell membrane. […] Cells were analyzed on flow cytometer.
(ii) DNA Fragmentation Assay. […] The cell are then lysed in a solution containing 10 mM Tris-HCl, pH 7.5, 25 mM EDTA, 0.5% SDS, and […] protease K. After digestion and removal of the cellular protein from the cellular DNA, the isolated DNA is analyzed on a 1.8% agarose gel, and visualized by ethidium bromide staining. […]
Two cancer cell lines and their mutant mitochondrial respiration deficient clones were analyzed for apoptosis and changes in cell-cycle following exposure to OSW-1. […] Consistent with these observations, apoptosis was also detected by DNA fragmentation assays performed at 24 and 32 hours after HL-60 cells are treated with OSW-1; DNA fragmentation was not observed in C6F cells even at 32 hours of drug incubation (data not shown).

[1] = tested on: primary normal lymphocytes; experiment: MTT cell viability, normal lymphocytes from healthy donors; assay type: cell-based; conditions: Homo sapiens, Lymphocyte
Description: FIG. 8. Effect of Orsaponin (OSW-1) on cell survival in primary normal lymphocytes isolated from healthy donors. Freshly isolated normal lymphocytes were incubated with the indicated concentrations of OSW-1 for 72 hours in vitro. Cell viability was measured by MTT assay. The IC50 value estimated to be 4 nM and 3 nM in case #1 and #2, respectively.
(§2) 1. MTT Assays. For these assays either cancer cell lines were used. Alternatively, mononuclear cells from peripheral blood samples of CLL patients or normal donors were separated by Ficoll Hipaque fractionation and resuspended in DMEM complete medium. Malignant cells from various human cell lines (usually at 5×10^4 cells/ml) or mononuclear cells from peripheral blood of leukemia patients and healthy donors (1×10^6 cells/ml) were incubated in either αMEM or RPMI 1640 with or without various concentrations of OSW-1 in the range of 0-10 nM. Each experimental condition was done in triplicate. After the indicated number of days (usually 3 days or 72 hours) of exposure to OSW-1, cell survival was assessed by the addition of the MTT dye to the wells. The MTT dye changes its color depending on the presence of live cells in the well. Survival of cells under orsaponin treatment was evaluated as a percentage of control cell growth. Alternatively, one can also use the dye trypan-blue which penetrates dead cells thereby allowing one to count live cells under the microscope and estimating percentage survival.
As controls the effect of OSW-1 on cell survival in primary normal lymphocytes isolated from healthy donors was also analyzed. Freshly isolated normal lymphocytes were incubated with the 01-0 nM OSW-1 for 72 hours in vitro and cell viability was measured by MTT assay. As depicted in FIG. 8, the IC50 value estimated to be 4 nM and 3 nM in case #1 and #2, respectively.

primary CLL cells = experiment: cells; assay type: cell-based
Description: FIG. 7. Effect of Orsaponin (OSW-1) on cell survival in primary human leukemia cells isolated from patients with chronic lymphocytic leukemia (CLL). Freshly isolated primary CLL cells were incubated with the indicated concentrations of OSW-1 for 72 hours in vitro. Cell viability was measured by MTT assay. […] Data from representative experiments with CLL cells from three different patients are shown. A total of 23 CLL blood samples were tested for sensitivity to OSW-1 in the same fashion.
as §2
Reduction of Cell Viability in CLL-Patient-Derived Cells. […] Freshly isolated primary CLL cells were incubated with the 0-100 nM OSW-1 for 72 hours in vitro and cell viability was measured by the MTT assay.
Cytotoxic activity of 17-deoxyorsaponin was also assessed in a number of patient samples. Primary human leukemia cells isolated from 11 patients with chronic lymphocytic leukemia (CLL) were analyzed for cytotoxic activity of 17-deoxyorsaponin. […]

[2] = tested on: C6F cells (HL-60 mutant with mitochondrial respiration defect); experiment: Apoptosis and cell cycle, respiration-deficient C6F; assay type: cell-based, human; conditions: 0.5 nM, 16 and 24 h
Description: as §1
Two cancer cell lines and their mutant mitochondrial respiration deficient clones were analyzed for apoptosis and changes in cell-cycle following exposure to OSW-1. Thus, the parental HL-60 leukemia line and its mitochondrial respiration defective mutant C6F were incubated with 0.5 nM OSW-1 for 0, 8, 16 and 24 hours and apoptosis and change in cell cycle distribution were assayed by flow cytometry analysis. […] Thus, it is clear that the respiration defective cells are resistant to the effects of OSW-1. Consistent with these observations, apoptosis was also detected by DNA fragmentation assays performed at 24 and 32 hours after HL-60 cells are treated with OSW-1; DNA fragmentation was not observed in C6F cells even at 32 hours of drug incubation (data not shown).

COc1ccc(C(=O)OC2C(OC3C(O)COC(O[C@H]4C[C@H]5[C@@H]6CC=C7C[C@@H](O)CC[C@]7(C)[C@H]6CC[C@]5(C)[C@@]4(O)[C@H](C)C(=O)CCC(C)C)C3OC(C)=O)OCC(O)C2O)cc1 (stereo partly drawn) [OSW-1, 3β, 16β, 17 α-trihydroxycholost-5-en-22-one 16-O-(2-O-4-methoxybenzoyl-β-D-xylopyranosyl)-(1->3)-(2-O-acetyl-α-L-arabinopyranoside)]
change in cell cycle distribution (HL-60 cells; 16 hours): significant reduction of G1 phase cells and an increase of cells in the G2/M phase region
apoptosis (subG1) (HL-60 cells; 24 h, flow cytometry): a substantial portion of the drug-treated HL-60 cells became apoptotic
time after incubation at which apoptosis occurred (HL-60 cells; annexin V and DNA fragmentation): 16 h
IC50 ([1]; 72 h, normal lymphocytes, 72 hours, case #1, read-out: IC50, cell viability): ~4 nM
IC50 ([1]; 72 h, normal lymphocytes, 72 hours, case #2, read-out: IC50, cell viability): ~3 nM
IC50 ([1]; Normal Lymphocytes, mean, read-out: IC50): 3.5 ± 0.7 nM
IC50 (primary CLL cells; Homo sapiens, CLL cell, 72 h, primary CLL cells, 72 hours, MTT, mean of 23 patients, read-out: IC50, cell viability): 0.15 ± 0.26 nM
Selectivity Index (primary CLL cells; IC50 ratio of malignant/normal cells (CLL vs normal lymphocytes)): 23
apoptosis [2]: does not result in significant apoptosis
